From PubChem BioAssay AID2842 (Southern Research Institute, 2010) come the findings set out here.

In this experiment the test system is M. tuberculosis H37Rv growth inhibition. The experiment in a line: Mycobacterium tuberculosis H37Rv growth inhibition, putative kinase inhibitor library, confirmatory dose response (AID 2842).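 Note: bacteria incubated one week before Alamar blue readout.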

Values after ≈ are worked out from the molar mass of the structure shown. Bounds are passed on as bounds.

Take `O=C(Nc1nnc(-c2ccc(Cl)cc2)o1)c1cccc(C(F)(F)F)c1`: the 90% effect concentration (IC90) is 2.99 µg/mL (≈ 8.13 µM). To `O=C(c1ccco1)N(CCCn1ccnc1)c1nc2ccccc2s1` belongs 4.28 µg/mL (≈ 12.1 µM); to `COc1ccccc1Cn1cc2c(-c3ccccc3)nnc-2c2cc(OC)c(OC)cc21`, 7.59 µg/mL (≈ 17.8 µM); to `COc1cccc(NC(=O)c2ccc(COc3cccc(C)c3)o2)c1`, 11.7 µg/mL (≈ 34.7 µM). To `COc1cc2ccccc2cc1C(=O)Nc1nnc(-c2ccc(F)cc2)o1` belongs 5.59 µg/mL (≈ 15.4 µM); to `N#C/C(=C\c1ccc([N+](=O)[O-])cc1)c1nc2ccccc2[nH]1`, 6.12 µg/mL (≈ 21.1 µM); to `Cc1cc(C)c(-c2csc(NC(=O)c3ccc4c(c3)OCCO4)n2)c(C)c1`, 7.63 µg/mL (≈ 20.1 µM). To `CCOC(=O)c1cnc2ccc(OCC)cc2c1Nc1ccccc1C` belongs 8.82 µg/mL (≈ 25.2 µM); to `Cc1ccc(C)c(-c2nnc(NC(=O)C(C)(C)C)o2)c1`, 1.32 µg/mL (≈ 4.83 µM).

Consider `CCC(CO)Nc1ncnc2c1cnn2-c1ccc(Cl)c(Cl)c1` (stereo not given), for which the IC90 was 14.2 µg/mL (≈ 40.5 µM). Regarding `COc1ccc2nc(Nc3sc4c(c3C(N)=O)CCC(C)C4)sc2c1` (stereo not given), the IC90 was 27.8 µg/mL (≈ 74.5 µM).

`O=C(Nc1nc2c(s1)COc1ccccc1-2)c1cccc(NS(=O)(=O)c2ccc(F)cc2)c1`: the IC90 is 13.4 µg/mL (≈ 27.8 µM). In the case of `O=C(CCSc1ccccc1)Nc1nnc(-c2ccc3c(c2)OCCO3)o1`, the IC90 was 16.8 µg/mL (≈ 43.9 µM). With `COc1cccc(/C=N/Nc2nncc(=O)[nH]2)c1O`, the IC90 is 0.43 µg/mL (≈ 1.65 µM). Regarding `COc1cccc(-c2nnc(NC(=O)c3cccc(F)c3)o2)c1`, the IC90 is < 0.2 µg/mL. With `COc1cccc(-c2nnc(NC(=O)/C=C/c3cccs3)o2)c1`, the IC90 was 3.55 µg/mL (≈ 10.8 µM).

For the compound `Cc1nc2ccc(NC(=O)Nc3cccc(Cl)c3)cc2s1`, the IC90 is 22.3 µg/mL (≈ 70.1 µM). On to `COc1cccc2sc(Nc3nnc(-c4ccc(F)cc4)o3)nc12`, for which the 90% effect concentration (IC90) is 2.97 µg/mL (≈ 8.68 µM). To `O=C(COc1ccc(Cl)cc1)NCCSc1ncc(-c2ccc(F)cc2)[nH]1` belongs 10 µg/mL (≈ 24.6 µM); to `O=C(CSc1nc(-c2cccc(F)c2)[nH]c1-c1ccccc1)Nc1ccc2c(c1)OCCO2`, 7.87 µg/mL (≈ 17.1 µM); to `CCOC(=O)CNC(=O)CSc1ncnc2c1nnn2Cc1ccccc1F`, 3.38 µg/mL (≈ 8.36 µM). As for `CS(=O)(=O)c1ccc2nc(Nc3nc4ccc(Cl)cc4s3)sc2c1`, the concentration for an effect of 90% (IC90) is 9.7 µg/mL (≈ 24.5 µM). To `CC(C)N1CCc2c(sc(NC(=O)c3ccc(S(=O)(=O)N(C)c4ccccc4)cc3)c2C(N)=O)C1` belongs 12.8 µg/mL (≈ 25 µM); to `Cc1ccc(N=C2NC(=O)C(Cc3ccccc3Cl)S2)cc1` (stereo not given), 25.4 µg/mL (≈ 76.9 µM).

Take `COc1ccc2sc(Nc3nnc(-c4ccco4)o3)nc2c1`: the IC90 was 80 µg/mL (≈ 255 µM). On to `CCN1C(=O)c2cccc3c(NC(=O)c4ccc(S(=O)(=O)N(C)C)cc4)ccc1c23`, for which the 90% effect concentration (IC90) was 24.2 µg/mL (≈ 57.2 µM).

For the compound `COc1cc(OC)cc(C(=O)N(CCCn2ccnc2)c2nc3cc(C)cc(C)c3s2)c1`, the IC90 is 6.63 µg/mL (≈ 14.7 µM). In the case of `COc1ccc(-c2nnc3c4ccccc4n(Cc4cccc(C)c4)cc2-3)cc1`, the IC90 is 13.4 µg/mL (≈ 35.3 µM).

Take `CCOc1ccc2nc(Nc3nc4c(OC)cccc4s3)sc2c1`: the IC90 was 3.75 µg/mL (≈ 10.5 µM). With `Cc1c(Cl)ccc2sc(N(CCCn3ccnc3)C(=O)COc3ccccc3)nc12` the figure was 3.05 µg/mL (≈ 6.92 µM); with `Cc1ccc(C)c(-c2nnc(NC(=O)c3ccccc3[N+](=O)[O-])o2)c1`, 4.88 µg/mL (≈ 14.4 µM).

Consider `COc1cccc2sc(NNC(=O)c3cc(=O)c4ccccc4o3)nc12`, for which the IC90 is 25.5 µg/mL (≈ 69.5 µM). For `CC(C)CCNC(=O)c1c(O)nc2sccn2c1=O`, the concentration for an effect of 90% (IC90) is 13.1 µg/mL (≈ 46.6 µM). With `Cc1ccc(C)c(-c2nnc(NC(=O)c3ccc(Cl)cc3)o2)c1` the figure was 22.7 µg/mL (≈ 69.2 µM); with `COc1ccc2nc(Nc3nc(-c4cccs4)cs3)sc2c1`, 37.8 µg/mL (≈ 109 µM). To `Cc1ccccc1C1C=C(c2cccs2)Nc2nc3ccccc3n21` (stereo not given) belongs 13.8 µg/mL (≈ 40 µM); to `O=C(Cc1cccc2ccccc12)Nc1nnc(-c2cccs2)o1`, 40.1 µg/mL (≈ 120 µM).

As to `CCN1C(=O)CCc2cc(NS(=O)(=O)c3ccc(OCC(C)C)cc3)ccc21`, the concentration for an effect of 90% (IC90) is 18.3 µg/mL (≈ 45.5 µM).

For `COc1ccc(C(=O)Nc2nnc(C3=COCCO3)o2)cc1`, the IC90 was 3.3 µg/mL (≈ 10.9 µM). To `c1ccc(CSc2ncnc3nc[nH]c23)cc1` belongs 19.5 µg/mL (≈ 80.3 µM).

With `CCN1CCc2c(sc(NC(=O)c3ccc([N+](=O)[O-])o3)c2C(N)=O)C1`, the IC90 was 6.91 µg/mL (≈ 19 µM). Regarding `Cc1ccc(-c2nnc(NC(=O)c3c(F)cccc3F)o2)c(C)c1`, the concentration for an effect of 90% (IC90) is 1.25 µg/mL (≈ 3.8 µM). Regarding `CCOC(=O)c1ccc2nc(NC(=O)C(C)C)sc2c1`, the 90% effect concentration (IC90) was 19.5 µg/mL (≈ 66.5 µM). `Cc1cc(C)cc(Nc2cc(C)nc3c(-c4ccccc4)cnn23)c1`: the concentration for an effect of 90% (IC90) is 2.7 µg/mL (≈ 8.22 µM). Take `CCOc1cc(-c2nnc(NC(=O)C3=COCCO3)o2)cc(OCC)c1OCC`: the 90% effect concentration (IC90) was 7 µg/mL (≈ 17.3 µM).

As for `CSc1cccc(-c2nnc(NC(=O)c3ccc([N+](=O)[O-])s3)o2)c1`, the IC90 was 1.58 µg/mL (≈ 4.36 µM).

Regarding `O=C(CSc1n[nH]c(=O)[nH]c1=O)c1ccccc1`, the IC90 is 12.1 µg/mL (≈ 45.9 µM). Consider `O=C(Nc1nnc(C2=COCCO2)o1)c1ccc(Oc2ccccc2)cc1`, for which the IC90 was 16.8 µg/mL (≈ 46 µM).

In the case of `O=C(Nc1nnc(-c2ccc3c(c2)OCCO3)o1)c1ccccc1Cl`, the IC90 is 4.5 µg/mL (≈ 12.6 µM). `O=C(/C=C/c1ccccc1Cl)Nc1nnc(C2=COCCO2)o1`: the IC90 was 26.7 µg/mL (≈ 79.9 µM).

By IC90 is commonly meant the concentration at which the effect reaches the 90% level.
